Measured values from patent US5599793A, “Antithromobotic agents” (Eli Lilly and Company, priority 1995, dated 1997).

Tests used:
Plasmin = target: T1, Plasmin (Homo sapiens, UniProt P00747); assay: Serine protease selectivity, chromogenic substrate (Kass), plasmin; format: biochemical; conditions: substrate H-D-Val-Leu-Lys-p-nitroanilide
T1 construct: Human plasmin is purchased; purchased Boehringer Mannheim, Indianapolis, Ind

Human plasma = Human plasma anticoagulation, prothrombin time (PT); format: biochemical; conditions: concentration required to double the PT, linear extrapolation
[1] = Index of bioavailability (% Relative Activity from plasma TT AUC, oral vs i.v.); format: in vivo; conditions: dose-adjusted AUC of plasma TT, p.o. versus i.v. bolus
Experimental: Plasma thrombin time (TT) and activated partial thromboplastin time (APTT) are measured with a fibrometer. Blood is sampled from a jugular catheter and collected in syringe containing sodium citrate (3.8%, 1 part to 9 parts blood). To measure TT, rat plasma (0.1 mL) is mixed with saline (0.1 mL) and bovine thrombin (0.1 mL, 30 U/mL in TRIS buffer; Parke Davis) at 37° C. For APTT, plasma (0.1 mL) and APTT solution (0.1 mL, Organon Teknika) are incubated for 5 minutes (37° C.) and CaCl2 (0.01 mL, 0.025M) is added to start coagulation. Assays are done in duplicate and averaged.
A measure of bioactivity, plasma thrombin time (TT), served as a substitute for the assay of parent compound on the assumption that increments in TT resulted from thrombin inhibition by parent only. The time course of the effect of the thrombin inhibitor upon TT is determined after i.v. bolus administration to anesthetized rats and after oral treatment of fasted conscious rats. Due to limitations of blood volume and the number of points required to determine the time course from time of treatment to the time when the response returned to pretreatment values, two populations of rats are used. Each sample population represented alternating sequential time points. The average TT over the time course is used to calculate area under the curve (AUC). The index of bioavailability is calculated by the formula shown below and is expressed as percent relative activity.
The area under the curve (AUC) of the plasma TT time course is determined and adjusted for the dose. This index of bioavailability is termed "% Relative Activity" and is calculated as [formula] Compounds
Compound solutions are prepared fresh daily in normal saline and are injected as a bolus or are infused starting 15 minutes before and continuing throughout the experimental perturbation which is 15 minutes in the arteriovenous shunt model and 60 minutes in the FeCl3 model of arterial injury and in the spontaneous thombosis model. Bolus injection volume is 1 mL/kg for i.v., and 5 mL/kg for p.o. and infusion volume is 3 mL/hr.

T1 sequence (P00747 581-810 limits assumed): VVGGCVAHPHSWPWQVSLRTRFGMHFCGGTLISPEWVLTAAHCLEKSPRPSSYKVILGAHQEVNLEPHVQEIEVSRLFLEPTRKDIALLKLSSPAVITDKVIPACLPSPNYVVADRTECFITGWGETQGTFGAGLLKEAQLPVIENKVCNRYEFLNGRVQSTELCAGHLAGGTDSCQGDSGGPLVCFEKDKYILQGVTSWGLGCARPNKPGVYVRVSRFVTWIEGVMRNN
T1 sequence (P00747 97-580 partner limits assumed): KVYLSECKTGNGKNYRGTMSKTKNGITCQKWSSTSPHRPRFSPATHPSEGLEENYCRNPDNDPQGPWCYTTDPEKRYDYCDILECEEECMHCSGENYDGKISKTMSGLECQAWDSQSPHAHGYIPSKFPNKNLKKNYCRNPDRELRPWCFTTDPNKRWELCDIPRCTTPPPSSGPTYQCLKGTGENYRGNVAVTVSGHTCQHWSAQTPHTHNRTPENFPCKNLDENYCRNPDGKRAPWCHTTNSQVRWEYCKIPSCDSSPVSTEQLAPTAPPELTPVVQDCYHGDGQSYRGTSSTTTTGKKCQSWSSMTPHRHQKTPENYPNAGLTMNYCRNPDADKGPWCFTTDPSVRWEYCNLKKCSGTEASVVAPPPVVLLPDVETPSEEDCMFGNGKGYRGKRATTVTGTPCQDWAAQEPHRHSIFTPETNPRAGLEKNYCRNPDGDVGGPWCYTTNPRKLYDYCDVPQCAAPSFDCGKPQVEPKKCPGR

Which “Enzyme Kass, Plasmin” value (Plasmin) does the source give for `C[C@H]1C[C@@H](C(=O)N[C@H](C=O)CCCNC(=N)N)N(C(=O)[C@H]2CCCCN2)C1.Cl.Cl` (relative stereo) [Example 1, D-homoprolyl-L-cis-4-methyl-prolyl-L-argininal dihydrochloride] here?
The value was 0.86 L/mol × 10^6.

And the “2x Clotting time, PT” value (Human plasma)?
Its value is 1,700 ng/mL.

What about the “% oral/i.v. activity (Rat)” value [1] of the same compound?
Its value is 47%.

For `CC[C@H]1C[C@@H](C(=O)N[C@H](C=O)CCCNC(=N)N)N(C(=O)[C@H]2CCCCN2)C1.Cl.Cl` (relative stereo) [Example 2, D-homoprolyl-L-cis-4-ethyl-prolyl-L-argininal dihydrochloride], which “Enzyme Kass, Plasmin” value (Plasmin) is on record?
The value was 1.0 L/mol × 10^6.

And the “2x Clotting time, PT” value (Human plasma)?
Its value is 1,500 ng/mL.

And the “% oral/i.v. activity (Rat)” value [1]?
The value was 50%.

Which “Enzyme Kass, Plasmin” value (Plasmin) does the source give for `CCC[C@H]1C[C@@H](C(=O)N[C@H](C=O)CCCNC(=N)N)N(C(=O)[C@H]2CCCCN2)C1.Cl.Cl` (relative stereo) [Example 3, D-hPro-Pro(4-cis-n-propyl)-ArgH.2 HCl] here?
The value was 0.66 L/mol × 10^6.

And the “2x Clotting time, PT” value (Human plasma)?
The value was 2,900 ng/mL.

And the “% oral/i.v. activity (Rat)” value [1]?
The value was 45%.

Which “Enzyme Kass, Plasmin” value (Plasmin) does the source give for `Cl.Cl.N=C(N)NCCC[C@@H](C=O)NC(=O)[C@@H]1C[C@H](Cc2ccccc2)CN1C(=O)[C@H]1CCCCN1` (relative stereo) [Example 5, D-hPro-Pro(4-cis-benzyl)-ArgH.2 HCl] here?
Its value is 2.1 L/mol × 10^6.

What about the “2x Clotting time, PT” value (Human plasma) of the same compound?
Its value is 1,600 ng/mL.

And the “% oral/i.v. activity (Rat)” value [1]?
The value was 20%.

With `Cl.Cl.N=C(N)NCCC[C@@H](C=O)NC(=O)[C@@H]1CC2CCCCC2N1C(=O)[C@H]1CCCCN1` (relative stereo) [Example 7, N-[(1-D-homoprolyl-cis-octahydro-1H-indol-2(S)-yl)carbonyl]-L-argininal dihydrochloride] as the compound, how does the “Enzyme Kass, Plasmin” value (Plasmin) read?
Its value is 1.8 L/mol × 10^6.

And the “2x Clotting time, PT” value (Human plasma)?
Its value is 1,500 ng/mL.

What about the “% oral/i.v. activity (Rat)” value [1] of the same compound?
The value was 50%.

With `Cl.Cl.N=C(N)NCCC[C@H](C=O)NC(=O)[C@@H]1C[C@H](Oc2ccccc2)CN1C(=O)[C@H]1CCCCN1` (relative stereo) [Example 8, D-homoprolyl-L-cis-4-phenoxy-L-prolyl-D-argininal dihydrochloride] as the compound, how does the “Enzyme Kass, Plasmin” value (Plasmin) read?
Its value is 2.9 L/mol × 10^6.

What about the “2x Clotting time, PT” value (Human plasma) of the same compound?
The value was 1,900 ng/mL.

And the “% oral/i.v. activity (Rat)” value [1]?
The value was 20%.

With `Cl.Cl.Cl.N=C(N)NCCC[C@@H](C=O)NC(=O)[C@@H]1C[C@H](Oc2cccnc2)CN1C(=O)[C@H]1CCCCN1` (relative stereo) [Example 9, D-hPro-Pro(4-cis-(3-pyridyloxy))-ArgH.3 HCl] as the compound, how does the “Enzyme Kass, Plasmin” value (Plasmin) read?
Its value is 1.7 L/mol × 10^6.

And the “2x Clotting time, PT” value (Human plasma)?
The value was 3,100 ng/mL.

What about the “% oral/i.v. activity (Rat)” value [1] of the same compound?
The value was 13%.

For `Cl.Cl.Cl.N=C(N)NCCC[C@@H](C=O)NC(=O)[C@@H]1C[C@H](Oc2ccc(N)cc2)CN1C(=O)[C@H]1CCCCN1` (relative stereo) [Example 11, D-hPro-Pro(4-cis-(4-NH2-phenoxy))-ArgH.3 HCl], which “Enzyme Kass, Plasmin” value (Plasmin) is on record?
Its value is 1.4 L/mol × 10^6.

And the “2x Clotting time, PT” value (Human plasma)?
The value was 5,900 ng/mL.

What about the “% oral/i.v. activity (Rat)” value [1] of the same compound?
Its value is 9%.

What does the source list for `Cl.Cl.N=C(N)NCCC[C@@H](C=O)NC(=O)[C@@H]1C[C@H](Oc2ccccc2)CN1C(=O)C1NCCC2CCCCC21` (relative stereo) [Example 15, D-1-Piq-Pro(4-cis-phenoxy)-ArgH.2 HCl]?
Enzyme Kass, Plasmin (Plasmin): 5.1 L/mol × 10^6; 2x Clotting time, PT (Human plasma): 1,600 ng/mL; % oral/i.v. activity (Rat) [1]: 5%

Which results are given for `CCS(=O)(=O)N[C@@H](C(=O)N1[C@H](C(=O)N[C@H](C=O)CCCNC(=N)N)C[C@@H]2CCCC[C@@H]21)c1ccccc1.Cl` (relative stereo) [Example 22, EtSO2 -D-Phg-cis-Ohi-ArgH.HCl]?
Enzyme Kass, Plasmin (Plasmin): 27.6 L/mol × 10^6; 2x Clotting time, PT (Human plasma): 1,208 ng/mL; % oral/i.v. activity (Rat) [1]: 30%

Which results are given for `Cl.Cl.N=C(N)NCCCC(C=O)NC(=O)C1CC2CCCCC2N1C(=O)C1NCCC2CCCCC21` [Example 20, D-1-cis-Piq-cis-Ohi-ArgH.2 HCl]?
Enzyme Kass, Plasmin (Plasmin; HCl): 3.67 L/mol × 10^6; 2x Clotting time, PT (Human plasma; HCl): 1,452 ng/mL; % oral/i.v. activity (Rat) [1]: 6%
